Square brackets hold non-standard residues; d marks the D form. * marks the point of attachment. Palmitoyl = CCCCCCCCCCCCCCCC(=O)*; Octanoyl = CCCCCCCC(=O)*; Hexanoyl = CCCCCC(=O)*
Test system: Normal human epidermal melanocytes, lightly pigmented
Assay: Melanin inhibition in L-tyrosine-stimulated melanocytes (melanogenese assay)
Type: cell-based
Conditions: L-tyrosine 1 mM, 240 hours incubation, inhibition compared to stimulated control
Description: Melanocytes (Normal human epidermal melanocytes, lightly pigmented, 8th passage) were seeded in 24 well plates and cultured for 24 hours in culture medium (M254 supplemented with PMA free HMGS-2, Insulin 5 μg/ml, Penicilline 50 U/ml-Streptomycine 50 μg/ml Gentamycine 25 μg/ml) at 37° C., 5% CO2. The medium was then replaced by culture medium containing the test compounds or the reference (lipoic acid at 5 μg/ml) in presence of L-tyrosine (1 mM). The cells were then incubated for 240 hours with 2 renewals of culture medium containing the test compounds or the reference in presence of L-tyrosine after 96 and 168 hours of incubation. A non-stimulated and a stimulated control were performed in parallel. All experimental conditions were performed in n=3, except for control conditions in n=6. At the end of incubation, the culture supernatants were removed and the melanin was extracted by cell lysis using a 0.5 N NaOH solution. The optical density (OD) of each experimental point was measured at 405 nm and melanin quantity was calculated using melanin standards (standard curve from 0.39 to 100 μg/ml melanin). Results were expressed in μg/ml of melanin and in percentage of inhibition compared to stimulated control.

Substance	Melanin inhibition [%] (1 μM test compound)	Melanin inhibition [%] (10 μM test compound)
H-[dW]-Arg-Leu-NH2 [Ref-5]	−3	14
Hexanoyl-[dW]-Arg-Leu-NH2 [Ref-2]	18	8
Octanoyl-[dW]-Arg-Leu-NH2 [Ref-4]	13	
Palmitoyl-D-Trp-Arg-ATMPA-NH2 [Ref-6]	−3	−12
Palmitoyl-D-Trp-NLe-Leu-NH2 [Ref-3]	13	
Palmitoyl-[dW]-Met-Leu-NH2 [Ref-1]	25	43

Source: patent US10836791B2, “Compounds” (DSM IP ASSETS B.V., priority 2016, dated 2020)
